Results: patent US20100016401A1, “3-AZA-BICYCLO[3.1.0]HEXANE DERIVATIVES” (Actelion Phamaceuticals Ltd., priority 2006, published 2010)

How the values were obtained:
human orexin-1 receptor = target: T1, human orexin-1 receptor (Homo sapiens, UniProt O43613); test: Intracellular calcium measurements (FLIPR), orexin receptor antagonistic activity, OX1; format: cell-based; conditions: CHO cells expressing human orexin-1 receptor, 10 nM orexin-A as agonist
T1 construct: expressed in transfected cells; host or cells: CHO (Chinese hamster ovary) cells, grown under G418 selection
T1 sequence (O43613 1-425): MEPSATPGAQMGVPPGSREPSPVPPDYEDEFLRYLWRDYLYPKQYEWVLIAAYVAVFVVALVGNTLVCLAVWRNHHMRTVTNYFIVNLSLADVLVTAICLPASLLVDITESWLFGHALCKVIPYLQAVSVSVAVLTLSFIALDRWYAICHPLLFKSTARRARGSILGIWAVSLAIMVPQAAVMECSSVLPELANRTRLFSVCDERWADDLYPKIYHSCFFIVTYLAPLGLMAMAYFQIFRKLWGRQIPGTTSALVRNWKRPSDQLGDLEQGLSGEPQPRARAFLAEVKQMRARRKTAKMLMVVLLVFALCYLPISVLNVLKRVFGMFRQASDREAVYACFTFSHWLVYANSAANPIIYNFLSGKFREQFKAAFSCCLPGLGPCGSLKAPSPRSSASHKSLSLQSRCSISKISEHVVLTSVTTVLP
Description: (§1) The orexin receptor antagonistic activity of the compounds of formula (I) is determined in accordance with the following experimental method.
(§2) Intracellular Calcium Measurements:
(§3) Chinese hamster ovary (CHO) cells expressing the human orexin-1 receptor and the human orexin-2 receptor, respectively, are grown in culture medium (Ham F-12 with L-Glutamine) containing 300 μg/ml G418, 100 U/ml penicillin, 100 μg/ml streptomycin and 10% inactivated fetal calf serum (FCS). The cells are seeded at 80,000 cells/well into 96-well black clear bottom sterile plates (Costar) which have been precoated with 1% gelatine in Hanks' Balanced Salt Solution (HBSS). All reagents are from Gibco BRL. The seeded plates are incubated overnight at 37° C. in 5% CO2.
(§4) Human orexin-A as an agonist is prepared as 1 mM stock solution in MeOH: water (1:1), diluted in HBSS containing 0.1% bovine serum albumin (BSA) and 2 mM HEPES for use in the assay at a final concentration of 10 nM.
(§5) Antagonists are prepared as 10 mM stock solution in DMSO, then diluted in 96-well plates, first in DMSO, then in HBSS containing 0.1% bovine serum albumin (BSA) and 2 mM HEPES.
(§6) On the day of the assay, 100 μl of loading medium (HBSS containing 1% FCS, 2 mM HEPES, 5 mM probenecid (Sigma) and 3 μM of the fluorescent calcium indicator fluo-3 AM (1 mM stock solution in DMSO with 10% pluronic acid) (Molecular Probes) is added to each well.
(§7) The 96-well plates are incubated for 60 min at 37° C. in 5% CO2. The loading solution is then aspirated and cells are washed 3 times with 200 μl HBSS containing 2.5 mM probenecid, 0.1% BSA, 2 mM HEPES. 100 μl of that same buffer is left in each well.
(§8) Within the Fluorescent Imaging Plate Reader (FLIPR, Molecular Devices), antagonists are added to the plate in a volume of 50 μl, incubated for 20 min and finally 100 μl of agonist is added. Fluorescence is measured for each well at 1 second intervals, and the height of each fluorescence peak is compared to the height of the fluorescence peak induced by 10 nM orexin-A with buffer in place of antagonist.

human orexin-2 receptor = target: T2, human orexin-2 receptor (Homo sapiens, UniProt O43614); test: Intracellular calcium measurements (FLIPR), orexin receptor antagonistic activity, OX2; format: cell-based; conditions: CHO cells expressing human orexin-2 receptor, 10 nM orexin-A as agonist
T2 construct: expressed in transfected cells; host or cells: CHO (Chinese hamster ovary) cells, grown under G418 selection
T2 sequence (O43614 1-444): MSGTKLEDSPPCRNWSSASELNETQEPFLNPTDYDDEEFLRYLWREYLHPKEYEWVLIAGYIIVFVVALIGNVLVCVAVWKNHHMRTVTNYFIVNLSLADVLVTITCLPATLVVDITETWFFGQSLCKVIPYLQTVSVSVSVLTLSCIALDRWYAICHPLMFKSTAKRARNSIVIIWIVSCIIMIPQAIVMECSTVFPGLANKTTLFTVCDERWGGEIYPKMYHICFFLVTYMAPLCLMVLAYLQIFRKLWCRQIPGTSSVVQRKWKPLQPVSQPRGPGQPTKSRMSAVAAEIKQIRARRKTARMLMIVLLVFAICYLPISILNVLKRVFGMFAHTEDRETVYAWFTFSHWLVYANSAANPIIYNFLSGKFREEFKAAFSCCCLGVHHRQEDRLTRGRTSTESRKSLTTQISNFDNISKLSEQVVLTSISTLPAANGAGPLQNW
Description: as §1, §2, §3, §4, §5, §6, §7, §8

Row | IC50 (human orexin-1 receptor) [nM] | IC50 (human orexin-2 receptor) [nM] | SMILES
1 | 99 | 16 | Cc1cccc(-c2sc(C)nc2C(=O)N2C[C@H]3C[C@H]3[C@H]2CNC(=O)c2sc(Br)nc2C)c1 (relative stereo) [Example 74, 2-bromo-4-methyl-thiazole-5-carboxylic acid [(1R*,2S*,5S*)-3-(2-methyl-5-m-tolyl-thiazole-4-carbonyl)-3-aza-bicyclo[3.1.0]hex-2-ylmethyl]-amide]
2 | 196 | 114 | Cc1ccc(C(=O)N2C[C@H]3C[C@H]3[C@H]2CNC(=O)c2c3c(cc4c2OCC4)OCC3)c(-c2cccc(F)c2)c1 (relative stereo) [Compound 318]
3 | 141 | 48 | Cc1nc(C(=O)N2C[C@H]3C[C@H]3[C@H]2CNC(=O)c2cccc3c2OCCO3)c(-c2cccc(C#N)c2)s1 (relative stereo) [Example 336, 2,3-Dihydro-benzo[1,4]dioxine-5-carboxylic acid {(1R*,2S*,5S*)-3-[5-(3-cyano-phenyl)-2-methyl-thiazole-4-carbonyl]-3-aza-bicyclo[3.1.0]hex-2-ylmethyl}-amide]
4 | 54 | 55 | Cc1cccc(-c2sc(C)nc2C(=O)N2C[C@H]3C[C@H]3[C@H]2CNC(=O)c2ccc(C)c(C(F)(F)F)c2)c1 (relative stereo) [Example 146, 4-Methyl-N-[(1R*,2S*,5S*)-3-(2-methyl-5-m-tolyl-thiazole-4-carbonyl)-3-aza-bicyclo[3.1.0]hex-2-ylmethyl]-3-trifluoromethyl-benzamide]
5 | 2960 | 91 | O=C(NC[C@@H]1[C@@H]2C[C@@H]2CN1C(=O)c1nccnc1-c1ccccc1)c1cccc2occc12 (relative stereo) [Example 32, benzofuran-4-carboxylic acid [(1R*,2S*,5S*)-3-(3-phenyl-pyrazine-2-carbonyl)-3-aza-bicyclo[3.1.0]hex-2-ylmethyl]-amide]
6 | 240 | 51 | O=C(NC[C@@H]1[C@@H]2C[C@@H]2CN1C(=O)c1cccc2c1-c1ccccc1C2)c1cccc2occc12 (relative stereo) [Example 31, benzofuran-4-carboxylic acid [(1R*,2S*,5S*)-3-(9H-fluorene-4-carbonyl)-3-aza-bicyclo[3.1.0]hex-2-ylmethyl]-amide]
7 | 1210 | 32 | Nc1nc(-c2ccccc2C(=O)N2C[C@H]3C[C@H]3[C@H]2CNC(=O)c2cccc3occc23)cs1 (relative stereo) [Example 30, benzofuran-4-carboxylic acid {(1R*,2S*,5S*)-3-[2-(2-amino-thiazol-4-yl)benzoyl]-3-aza-bicyclo[3.1.0]hex-2-ylmethyl}-amide]
8 | 43 | 33 | Cc1cccc(-c2sc(C)nc2C(=O)N2C[C@H]3C[C@H]3[C@H]2CNC(=O)c2cccc3c2C=CCO3)c1 (relative stereo) [Example 178, 2H-Chromene-5-carboxylic acid [(1R*,2S*,5S*)-3-(2-methyl-5-m-tolyl-thiazole-4-carbonyl)-3-aza-bicyclo[3.1.0]hex-2-ylmethyl]-amide]
9 | 33 | 15 | Cc1cccc(-c2sc(N)nc2C(=O)N2C[C@H]3C[C@H]3[C@H]2CNC(=O)c2scc3c2OCCO3)c1 (relative stereo) [Example 284, 2,3-Dihydro-thieno[3,4-b][1,4]dioxine-5-carboxylic acid [(1R*,2S*,5S*)-3-(2-amino-5-m-tolyl-thiazole-4-carbonyl)-3-aza-bicyclo[3.1.0]hex-2-ylmethyl]-amide]
10 | 373 | 61 | Cc1ccc(C(=O)N2C[C@H]3C[C@H]3[C@H]2CNC(=O)c2cccc3c2OCCO3)c(C#CC2CC2)c1 (racemic) [Example 379, 2,3-Dihydro-benzo[1,4]dioxine-5-carboxylic acid [(1R*,2S*,5S*)-3-(2-cyclopropylethynyl-4-methyl-benzoyl)-3-aza-bicyclo[3.1.0]hex-2-ylmethyl]-amide]
11 | 596 | 76 | Cc1nc(C(=O)N2C[C@H]3C[C@H]3[C@H]2CNc2cnc3cc(F)c(F)cc3n2)c(-c2ccc(F)cc2)s1 (relative stereo) [Example 60, {(1R*,2S*,5S*)-2-[(6,7-difluoro-quinoxalin-2-ylamino)-methyl]-3-aza-bicyclo[3.1.0]hex-3-yl}-[5-(4-fluoro-phenyl)-2-methyl-thiazol-4-yl]-methanone]
